Reference: patent US8859625B2, “Methods to prepare penta-1,4-dien-3-ones and substituted cyclohexanones and derivatives with antitumoral and antiparasitic properties, the compounds and their uses” (Universidade Bandeirante de Sao Paulo-Academia, Paulista …, priority 2006, dated 2014)
“Also recorded” adds a separate entry of the source.

System: B16F10 melanoma
Test: Histological analysis of mice bearing B16F10 dorsal melanoma
Type: in vivo, C57BL/6J mice
Settings: diluted in Miglyol 810, 1.15 μg/kg intraperitoneal
Source text: Animals are sacrificed by cervical displacement and the organ fragments were collected from the areas next to the tumoral region, stored in vials containing 10% formaldehyde, and fixed to be submitted to the routine histological processing (PARDI, P C; SIMÕES, M J, BINIVIGNAT, G. O—Ultrastructural study of the remodeling of the stroma of persistent-estrous rats—Rev. Chil. Cienc. Méd. Biol 3(2):61-65, 1993).
Melanoma B16F10 cell line are implanted at 5×10^4 cells per animal, the ideal dose to obtain the expected results and already proclaimed for this chosen type of animal.
All animals are treated after Day 14 of tumor implant and, as a result, the sequence of necropsis initiates at Day 15.
To visualize the results of HB-1 administration, animals are allocated into the following groups:
2—HB-1 group, treated with HB-1 diluted in Miglyol 810®, kept under ad libitum feed and water.
In both cases, the standard administered dose is of 1.15 μg/kg, via intraperitoneal as the elicited administration route.
Animals are sacrificed by cervical displacement and necropsis is performed with the material immediately collected and transferred to vials containing 10% formaldehyde and, after a 1 to 2 day period, submitted to a routine histological technique Hystology Technique Manual (Manual De Técnicas Para Histologia—Normal E Patológica: Castro De Tolosa, Rodrigues, Behmer E Freitas Neto, Editora Manole 2003).
After the fixation procedure to the thin plate, the hematoxylin/eosin staining method—Hystology Technique Manual (Manual (Manual De Técnicas Para Histologia—Normal E Patológica: Castro De Tolosa, Rodrigues, Behmer E Freitas Neto, Editora Manole 2003). is applied as it presents good results for tissue and cell morphologic evaluation, mainly to the components in each block.
After staining, the thin plates are mounted, then analysed by a ZEISS microscopy with a AXIOCAM-MRC3 trade mark digital camera, and the resulting pictures processed by a AXIOVISON REL 4.2 (Carl Zeiss Inc.) software, registered by a computer.

## COc1cc(C=CC(=O)C=Cc2ccc(O)c(OC)c2)ccc1O [HB-1, 1,5-Bis-(4-hydroxy-3-methoxy-phenyl)-penta-1,4-dien-3-one]
14 day treatment
  leukocytic infiltrate in dorsal tumor: presence of a leukocytic infiltrate in the peri- and intratumoral portions
Compared to control group
  lung parenchyma alterations: No alterations of thickness or bronchium epithelium rupture
  metastatic lesions: no metastatic lesions were found; also recorded: presence of metastatic masses or nodules was not observed
